Measurements published in PMC9538480, “Rutin bioconjugates as potential nutraceutical prodrugs: An in vitro and in ovo toxicological screening” (Frontiers in Pharmacology, 2022).

What was measured:
HaCaT = system: HaCaT; design: method as in Carullo et al., 2019; settings: 1 μM; ref Carullo et al., 2019; cited from earlier work
in vitro [1] = assay type: cell-based, rat; settings: rat
Procedure: (§1) To evaluate the in vitro effect of rutin esters (REs) on cells’ viability, the MTT technique was applied following a 24 h treatment of H9c2(2-1), HepaRG, and HaCaT cells with RUT-O and RUT-L (1, 10, 25, 50, and 100 µM). The parent compounds (PCs)—RUT, OA, and LA were also tested. DMSO was used as solvent for all test compounds (RUT, OA, LA, RUT-O, and RUT-L). The impact of DMSO at tested concentrations (1, 10, 25, 50, and 100 µM) was also assessed in vitro. At the end of the treatment, fresh media (100 µl) and the MTT reagent (10 µl) were added in each well, and the plates were incubated for 3 h at 37°C. The final steps were as follows: addition of the solubilization solution (100 µl/well), incubation of the plates at room temperature for 30 min, protected from light, and absorbance measurement at two wavelengths (570 and 630 nm) using Cytation 5 (BioTek Instruments Inc., Winooski, VT, United States). The results were expressed as percentage (%) of viable cells normalized to control cells (unstimulated cells).

H9c2(2-1) cells [2] = assay: in vitro; assay type: cell-based, rat; settings: H9c2(2-1), lowest concentrations (1 and 10 µM), 24 h
Procedure: as §1

in vitro [3] = assay type: cell-based, human; settings: human
Procedure: as §1

[4] = system: H9c2(2-1), HaCaT, and HepaRG cells; assay type: cell-based; settings: 100 µM, 24 h
Procedure: To verify the impact of PCs (RUT, OA and LA) and REs (RUT-O and RUT-L) on the morphology and confluence of H9c2(2-1), HaCaT, and HepaRG cells, a microscopic examination was performed. The cells were observed under bright field illumination and photographed at the end of the 24 h treatment period using Cytation 1 (BioTek Instruments Inc., Winooski, VT, United States). The photographs were processed using the Gen5™ Microplate Data Collection and Analysis Software (BioTek Instruments Inc., Winooski, VT, United States).

H9c2(2-1) cells [5] = assay type: cell-based, rat; settings: 100 µM, 24 h, Hoechst 33342
Procedure: (§2) The potential toxicity of 100 μM RUT, OA, LA, RUT-O, and RUT-L at nuclear level was tested by applying the Hoechst 33342 staining assay protocol according to the manufacturer’s (Thermo Fisher Scientific, Inc., Waltham, MA, United States) recommendations. In brief, H9c2(2-1), HepaRG, and HaCaT cells were seeded in 12-well plates (10^5 cells/1.5 ml/well) and treated with the test compounds for 24 h. After the stimulation period, the media was removed, and the staining solution diluted 1:2000 in PBS was added (500 µl/well). The plates were incubated for 10 min at room temperature, protected from light. Finally, the staining solution was washed with PBS and the pictures were taken using Cytation 1 (BioTek Instruments Inc., Winooski, VT, United States) and analyzed by the means of Gen5™ Microplate Data Collection and Analysis Software (BioTek Instruments Inc., Winooski, VT, United States). Staurosporine (STP) 5 µM was selected as positive control for apoptosis.

HaCaT cells = assay type: cell-based, human; settings: 100 µM, 24 h, Hoechst 33342
Procedure: as §2

HepaRG cells = assay type: cell-based, human; settings: 100 µM, 24 h, Hoechst 33342
Procedure: as §2

chorioallantoic membrane = assay: HET-CAM in ovo irritant potential; assay type: in vivo, Gallus domesticus; settings: 5 min after application
Procedure: To perform a toxicological screening and to verify the irritant potential of the RUT-O and RUT-L were used chicken eggs (Gallus domesticus). Specifically, the eggs were prepared as follows: 1) after being washed and disinfected with 70% ethanol (v/v), the eggs were placed in an incubator in a horizontal posture; 2) on the fourth day of incubation, a small hole was made through which a volume of approximately 7–8 ml of albumen was extracted in order to facilitate the detachment of the chorioallantoic membrane from the inner shell of the egg; 3) on the fifth day of incubation, a window was cut in the upper part of the egg to allow the visualization of the blood vessels, which was then covered with adhesive tape and the eggs were placed in the incubator until the day of the beginning of the experiment. Using the Hen’s Egg Test—Chorioallantoic Membrane (HET-CAM) assay, the potential in ovo toxicity of the samples was evaluated. […] [Kis et al., 2022]). […] In order to observe any vascular effects, a stereomicroscope (Discovery 8 Stereomicroscope Zeiss, Göttingen, and Germany) was used, and images were taken with a Zeiss Axio CAM 105 color camera before and 5 min after the application of the samples. The same experimental protocol was applied for the parent compounds—RUT, OA, and LA.

[6] = system: trophoblast-like Swan71 cells; design: method as in Shrestha et al., 2019; settings: 24 h of treatment, ref Shrestha et al., 2019; cited from earlier work
HUVEC endothelial cells = settings: ref Lu et al., 2010; cited from earlier work

impact on cells' adherence or confluency ([4]; compared to control cells) | nuclear morphology changes (H9c2(2-1) cells [5]) | nuclear morphology changes (HaCaT cells) | nuclear morphology changes (HepaRG cells) | Structure (SMILES) | stimulation of HaCaT wound healing (HaCaT) | viability at 24 h, 50 µM (in vitro [1]) [%] | viability at 24 h, 100 µM (in vitro [1]) [%] | effect on cell viability (H9c2(2-1) cells [2]) | viability at 24 h, 100 µM (in vitro [3]) [%] | round cells floating in the culture medium ([4]; bright field) | vascular irritation signs (hemorrhage, lysis, coagulation) in words (chorioallantoic membrane) | decrease in the viability compared to vehicle control [6] [%] | concentrations suppressing HUVEC endothelial cells growth (HUVEC endothelial cells)
 |  |  |  | CCCCCCCC/C=C\CCCCCCCC(=O)Oc1c(-c2ccc(O)c(O)c2)oc2cc(O)cc(O)c2c1=O [Quercetin-3-oleate] | up to 51% |  |  |  |  |  |  |  | 
no negative impact | no significant nuclear alterations | no significant nuclear alterations | no significant nuclear alterations | CCCCC/C=C\C/C=C\CCCCCCCC(=O)O [LA, linoleic acid] |  | 87.2 | 84.2 | stimulatory effect | 86.9 | several round cells floating in the culture medium | No signs of vascular irritation | 10 | higher than 300 µM
